Measured values from patent US10302660B2, “Methods useful for vitamin D deficiency and related disorders” (OPKO RENAL, LLC, priority 2008, dated 2019).
“Also recorded” adds a separate entry of the source.

What was measured:
[1] = system: parathyroid hormone (PTH); assay: Serum intact PTH (iPTH Elisa Kit) in adenine-fed rats treated with vitamin D compounds; type: in vivo; conditions: treated for one week, versus control-fed animals (FIG. 2)
Source text: To obtain an animal model of vitamin D deficiency, rats were fed an adenine-rich diet.

[2] = Vitamin D hormone status: 1,25-(OH)2-D3 level by mass spectrometry in adenine-fed rats; type: in vivo; conditions: versus control-fed animals (FIG. 3)
CYP24 [3] = assay: Kidney CYP24 mRNA (real-time PCR) in vitamin D deficient rats treated with 25-hydroxyvitamin D3; type: in vivo, Sprague Dawley rats; conditions: vitamin D deficient animals after treatment; 0.6, 3 or 18 mcg/kg daily for two weeks (FIG. 17)
Method: Sprague Dawley rats were fed either a normal diet or a vitamin D deficient diet for a period of four weeks. Animals were then injected daily for two weeks with either 25-hydroxyvitamin D3 at 0.6, 3, or 18 mcg/kg or vehicle as per the axis label in FIG. 17. Kidneys were collected 24 hours after the last injection and CYP24 mRNA levels were measured by real-time PCR.

CYP24 [4] = assay: Kidney CYP24 mRNA (real-time PCR) in uremic (adenine) vitamin D deficient rats treated with 25-hydroxyvitamin D3; type: in vivo, Sprague Dawley rats; conditions: uremic vitamin D deficient rats after treatment; 0.6 or 18 mcg/kg daily for two weeks (FIG. 18)
Method: Sprague Dawley rats were fed either a normal diet (Adenine Vehicle group) or a vitamin D deficient diet (Vit. D def./Adenine Vehicle group) for a period of four weeks. Following this treatment, animals were orally administered, daily for two weeks, 100 mg of adenine. Animals were then injected daily for another two weeks with either 25-hydroxyvitamin D3 at 0.6 or 18 mcg/kg or vehicle as per the axis label in FIG. 18. Kidneys were collected 24 hours after the last injection and CYP24 mRNA levels were measured by real-time PCR.

[5] = 1,25-dihydroxyvitamin D3 levels in vitamin D deficient uremic versus vitamin D deficient rats dosed with 25-hydroxyvitamin D; type: in vivo; conditions: after dosing for two weeks; vitamin D deficient uremic rats compared to vitamin D deficient animals (FIG. 19)
CYP24 [6] = assay: CYP24 gene expression by real-time PCR in normal and adenine-induced uremic rats dosed with 1,25-dihydroxyvitamin D3; type: in vivo, Sprague-Dawley rats
Method: Sprague-Dawley rats were treated i.v. daily with vehicle or 0.5 mcg/kg 1,25-dihydroxyvitamin D3 for 1 week. Organs were collected 24 hours after the last dosing. CYP24 gene expression was determined by real-time PCR.
Sprague-Dawley rats were fed a standard diet (normal) or a uremia-inducing diet containing 0.75% adenine (uremic) for 4 weeks. Animals were then dosed i.v. daily with vehicle or 0.5 mcg/kg 1,25-dihydroxyvitamin D3 for 7 days. Organs were collected 24 hours after the final dosing. CYP24 gene expression was determined by real-time PCR and normalized to GAPDH levels. Relative expression values are normalized to the vehicle-treated group (relative expression=1).
“*” denotes a significant difference in CYP24 expression between vehicle and 1,25-dihydroxyvitamin D3 treatment in normal and uremic rats. “**” represents a significant difference between vehicle-treated normal and uremic rats. “ ? ” denotes significant difference in CYP24 induction levels between normal and uremic rats treated with 1,25-dihydroxyvitamin D3. Significance was set at a p value cutoff of <0.05. Data are presented as mean±SEM. Numerals above each bar signifies relative fold induction to normal-vehicle.
CYP24 and CYP27B1 expression was measured using the same protocol outlined above in Example 6 with respect to FIG. 11. Serum levels of 25(OH)D3 and 1,25-dihydroxyvitamin D3 were measured by LC-MS. Serum PTH was measured by ELISA IMMUTOPICS (San Clemente, Calif., USA) according to manufacturer's instructions. Briefly, serum samples were spiked with [26,27-^2H6] 25(OH)D3 or [25,26-^2H6] 1,25-dihydroxyvitamin D3 and dissolved in acetonitrile to serve as an internal standard. 1,25-dihydroxyvitamin D3 or 25(OH)D3 and internal standards were extracted from serum using Accubond II ODS-C18 100 mg, 1 mL SPE cartridges (Agilent Technologies). The collected fractions were evaporated to dryness under a steady stream of nitrogen gas and the residues reconstituted in 50 μL of methanol/H2O (80/20; v/v) and analyzed using LC-MS/MS (Waters Alliance HPLC—Waters Quattro Ultima mass spectrometer). […]

[7] = Serum 25(OH)D3 by LC-MS in uremic rats treated with 1,25-dihydroxyvitamin D3; type: in vivo, Sprague-Dawley rats; conditions: 0.5 mcg/kg i.v. daily for 7 days (FIG. 12)
Method: (§1) CYP24 and CYP27B1 expression was measured using the same protocol outlined above in Example 6 with respect to FIG. 11. Serum levels of 25(OH)D3 and 1,25-dihydroxyvitamin D3 were measured by LC-MS. Serum PTH was measured by ELISA IMMUTOPICS (San Clemente, Calif., USA) according to manufacturer's instructions. Briefly, serum samples were spiked with [26,27-^2H6] 25(OH)D3 or [25,26-^2H6] 1,25-dihydroxyvitamin D3 and dissolved in acetonitrile to serve as an internal standard. 1,25-dihydroxyvitamin D3 or 25(OH)D3 and internal standards were extracted from serum using Accubond II ODS-C18 100 mg, 1 mL SPE cartridges (Agilent Technologies). The collected fractions were evaporated to dryness under a steady stream of nitrogen gas and the residues reconstituted in 50 μL of methanol/H2O (80/20; v/v) and analyzed using LC-MS/MS (Waters Alliance HPLC—Waters Quattro Ultima mass spectrometer). Relative expression values are normalized to the vehicle-treated group (relative expression=1).

PTH = assay: Serum PTH by ELISA in uremic rats treated with 1,25-dihydroxyvitamin D3; type: in vivo, Sprague-Dawley rats; conditions: 0.5 mcg/kg i.v. daily for 7 days (FIG. 12)
Method: as §1

CYP24 [8] = assay: CYP24 induction (real-time PCR) in HEK cells with 1,25-dihydroxyvitamin D3 alone or with CYP24 inhibitor; type: cell-based; conditions: 10 nM inhibitor with 10 nM 1,25-dihydroxyvitamin D3, 6, 24, 48 and 72 hours (FIG. 14)
Method: HEK cells were seeded at 25,000 cells per well (24-well plate) and incubated with 1,25-dihydroxyvitamin D3 (10 nM) alone or with a CYP24 inhibitor (MK-24(S)—S(O)(NH)-Ph-1, see U.S. Pat. No. 7,101,865, compound I(a)) (10 nM) for 6, 24, 48 and 72 hours. Cells were collected and RNA was prepared using TRIZOL® reagent. CYP24 was quantified using real-time PCR.

HEK cells = assay: [3H]-thymidine incorporation in HEK cells, 1,25-dihydroxyvitamin D3 with CYP24 inhibitor; type: cell-based; conditions: cultured HEK cells, inhibitor at 0, 1, 10 and 50 nM (FIG. 15)
Method: HEK cells were transferred into 96-well plates at 2000 cells/well density. After 2 days of growth in 96-well plates the cells were treated with 1,25-dihydroxyvitamin D3 at the final concentrations 10^−6-10^−11 M in combination with the MK-24(S)—S(O)(NH)-Ph-1 compound with the varied final concentration of 0, 1, 10 and 50 nM. After overnight treatment [^3H]-thymidine was added to cells, […]/well in KGM media for 16 h. The radioactivity incorporation was counted using a scintillation counter after the addition of […] of scintillation fluid. The data were represented as an incorporation of thymidine in cpm depending on 1,25-dihydroxyvitamin D3 concentration. Each data point represents at least 4 independent trials.

CYP24 [9] = assay: CYP24 RNA expression in HPK1a-ras cells, 1,25-dihydroxyvitamin D3 with or without FGF23; type: cell-based; conditions: 100 ng/mL FGF23 with 0, 1, 10, 100 nM calcitriol, after 8 hours (FIG. 16)
Method: HPK1a-ras cells were treated with 0, 1, 10, and 100 nM of 1,25-dihydroxyvitamin D3 (calcitriol), with or without 100 ng/mL of FGF23, and CYP24 RNA expression was measured after 8 hours.

Molecule: C=C1/C(=C\C=C2/CCC[C@]3(C)[C@@H]([C@H](C)/C=C/[C@H](C)C(C)(C)O)CC[C@@H]23)C[C@@H](O)C[C@@H]1O [1,25-(OH)2-D2, 1,25-dihydroxyvitamin D2]
- iPTH level [1]: restored to a level similar to control-fed animals
- 1,25-(OH)2-D3 levels (vitamin D hormone status) [2]: did not significantly affect

Molecule: C=C1CC[C@H](O)C/C1=C/C=C1\CCC[C@]2(C)[C@@H]([C@H](C)CCCC(C)(C)O)CC[C@@H]12 [25-OH-D3, 25-hydroxyvitamin D3]
- iPTH level [1]: restored to a level similar to control-fed animals
- 1,25-(OH)2-D3 levels (vitamin D hormone status) [2]: did not significantly affect
- CYP24 levels (CYP24 [3]): increase to normal or higher levels
- CYP24 levels (CYP24 [4]): do not increase
- levels of 1,25-dihydroxyvitamin D3 [5]: lower

Molecule: C=C1/C(=C\C=C2/CCC[C@]3(C)[C@@H]([C@H](C)CCCC(C)(C)O)CC[C@@H]23)C[C@@H](O)C[C@@H]1O [1,25-(OH)2-D3, 1,25-dihydroxyvitamin D3]
- iPTH level [1]: restored to a level similar to control-fed animals
- 1,25-(OH)2-D3 levels (vitamin D hormone status) [2]: restored to the level of control-fed animals
- induced expression of CYP24 (CYP24 [6]; parathyroid gland, uremic compared to normal animals, 0.5 mcg/kg i.v. daily for 7 days (FIG. 11)): significantly induced; also recorded: markedly greater
- CYP24 gene expression (CYP24 [6]; tissues from both normal and uremic rats, 0.5 mcg/kg i.v. daily): strongly induced
- CYP24 expression (CYP24 [6]; uremic rats, 0.5 mcg/kg i.v. daily for 7 days (FIG. 12)): drastically induces
- serum 25-(OH)D3 levels [7]: reduction
- PTH (PTH): reduction

Molecule: C=C1/C(=C\C=C2/CCC[C@]3(C)[C@@H]([C@H](C)CCC[S@](=N)(=O)c4ccccc4)CC[C@@H]23)C[C@@H](O)C[C@@H]1O [MK-24(S)—S(O)(NH)-Ph-1, (5Z,7E)-(1S,3R)-24-(S)-phenylsulfoximine-25-nor-9,10-seco-5,7,10(19)-cholestatriene-1,3-diol]
- CYP24 induction by 1,25-dihydroxyvitamin D3 in the presence of CYP24 inhibitor (CYP24 [8]): markedly extended
- enhancement of the anti-proliferative effects of 1,25-dihydroxyvitamin D3 (HEK cells): approximately 3 orders of magnitude

B1: FGF23: fibroblast growth factor-23 (protein, UniProt Q9GZV9 25-251, looked up)
Fibroblast growth factor 23: YPNASPLLGSSWGGLIHLYTATARNSYHLQIHKNGHVDGAPHQTIYSALMIRSEDAGFVVITGVMSRRYLCMDFRGNIFGSHYFDPENCRFQHQTLENGYDVYHSPQYHFLVSLGRAKRAFLPGMNPPPYSQFLSRRNEIPLIHFNTPIPRRHTRSAEDDSERDPLNVLKPRARMTPAPASCSQELPSAEDNSPMASDPLGVVRGGRVNTHAGGTGPEGCRPFAKFI
- CYP24 RNA production, effect with 1,25-dihydroxyvitamin D3 (CYP24 [9]): synergizes
